Where two headings read alike, the source gives them in different places.
System: human cardiac fibroblasts
Test: Cell-based inhibition assay of generation of procollagen I C-terminal propeptide (PICP), PICP ELISA
Conditions: Cardiac fibroblast, read-out: pIC50, PICP cellular inhibition assay (converted)
Method: Cell-Based Inhibition Assay of Generation of Procollagen I C-Terminal Propeptide (PICP) and Mature Collagen:
An adaptation of the collagen deposition assay described by Chen, C. Z. C., et al., British Journal of Pharmacology, 2009, 158, 1196-1209 was used to examine effect of compounds on procollagen I processing and collagen deposition. In the adapted assay, human cardiac fibroblasts were utilized. Processing of procollagen I was determined by a PICP ELISA assay and deposition of mature collagen was determined by immunostaining.
Human cardiac fibroblasts were cultured and maintained until passage 6 in FGM-3 media (Lonza, #CC-3132) in a 37° C. humidified incubator with 5% CO2. They were then seeded in 96-well black wall, clear bottom plates at 10,000 to 15,000 cells per well in eagle's minimum essential media (EMEM, ATCC #30-2003) containing 10% fetal bovine serum (FBS, Life Technologies #10082147), 1% Glutamax (Life Technologies #35050061) and 1% Penicillin and Streptomycin (Life Technologies #15070063). These cultures were placed in 37° C. incubator. The next day, media were removed by aspiration and cells were rinsed with phosphate buffered saline. Crowding media (also called ficoll media) was prepared by adding 112.5 mg/ml of ficoll70 and 75 mg/ml ficoll400 (GE healthcare #17-0310-10 and 17-0300-10, respectively), 100 μM ascorbic acid, 1% Glutamax and 1% Penicillin and Streptomycin to EMEM media. Test compounds (dissolved in DMSO) were diluted into crowding media and then added to the cells. Final concentration of DMSO in crowding media was less than 0.3%. Cells were treated for 24 to 48 hr in a 37° C. incubator. At the end of the treatment period, cell media were collected. The level of PICP in the media were determined by a PICP ELISA assay (Quidel #8003) following the manufacturer's protocol. Potencies of test compounds were calculated by fitting PICP levels, relative to untreated controls, to log (inhibitor) vs. response equation using Graphpad Prism software 5.0 and expressed as pIC50.

[1] = human cardiac fibroblasts, crowding media, 24 to 48 hr, PICP ELISA of media

CCCCC[C@@H](C(=O)NCNC(=O)c1ccc(-c2cc(OCC(N)=O)cc(C(=O)O)c2)o1)[C@@H](CC)N(O)C=O [Example 131, 3-(2-amino-2-oxoethoxy)-5-(5-((((R)-2-((R)-1-(N-hydroxyformamido)propyl)heptanamido)methyl)carbamoyl)furan-2-yl)benzoic acid]
IC50 [1]: < 3.98 µM

CCCCC[C@H](CN(O)C=O)C(=O)NCNC(=O)c1ccc(-c2cccc(C(=O)OC)c2)o1 [Example 16, (R)-methyl 3-(5-(((2-((N-hydroxyformamido)methyl)heptanamido)methyl)carbamoyl)furan-2-yl)benzoate]
IC50 [1]: < 3.98 µM

CCCCC[C@@H](C(=O)NCNC(=O)c1ccc(-c2cc(CC(=O)O)cc(OCC)c2)o1)[C@@H](CC)N(O)C=O [Example 72, 2-(3-ethoxy-5-(5-((((R)-2-((R)-1-(N-hydroxyformamido)propyl)heptanamido)methyl)carbamoyl)furan-2-yl)phenyl)acetic acid]
IC50 (Homo sapiens): < 3.98 µM

CCCCC[C@@H](C(=O)NCNC(=O)c1ccc(-c2cccc(C(C)(C)C(=O)O)c2)o1)[C@@H](CC)N(O)C=O [Example 67, 2-(3-(5-((((R)-2-((R)-1-(N-hydroxyformamido)propyl)heptanamido)methyl)carbamoyl)furan-2-yl)phenyl)-2-methylpropanoic acid]
IC50 [1]: < 3.98 µM

CCCCC[C@H](CN(O)C=O)C(=O)NCNC(=O)c1ccc(-c2cccc(P(=O)(O)OC)c2)o1 [Example 95, methyl hydrogen (3-(5-((((R)-2-((N-hydroxyformamido)methyl)heptanamido)methyl)carbamoyl)furan-2-yl)phenyl)phosphonate]
IC50 (Homo sapiens): < 3.98 µM

CCCCC[C@H](CN(O)C=O)C(=O)NCNC(=O)c1ccc(-c2cccc([N+](=O)[O-])c2)o1 [Example 105, (R)—N-((2-((N-hydroxyformamido)methyl)heptanamido)methyl)-5-(3-nitrophenyl)furan-2-carboxamide]
IC50 [1]: < 3.98 µM

CCCCC[C@@H](C(=O)NCNC(=O)c1ccc(-c2cc(OCC)cc(C(F)(F)C(=O)O)c2)o1)[C@@H](CC)N(O)C=O [Example 49, 2-(3-ethoxy-5-(5-((((R)-2-((R)-1-(N-hydroxyformamido)propyl)heptanamido)methyl)carbamoyl)furan-2-yl)phenyl)-2,2-difluoroacetic acid]
IC50 [1]: < 3.98 µM

CCCCC[C@H](CN(O)C=O)C(=O)NCNC(=O)c1ccc(-c2cccc(C(=O)O)c2F)o1 [Example 59, (R)-2-fluoro-3-(5-(((2-((N-hydroxyformamido)methyl)heptanamido)methyl)carbamoyl)furan-2-yl)benzoic acid]
IC50 [1]: < 3.98 µM

CCCCC[C@@H](C(=O)NCNC(=O)c1ccc(-c2cc(CN(C)CC(=O)O)cc(OCC)c2)o1)[C@@H](CC)N(O)C=O [Example 130, 2-((3-ethoxy-5-(5-((((R)-2-((R)-1-(N-hydroxyformamido)propyl)heptanamido)methyl)carbamoyl)furan-2-yl)benzyl)(methyl)amino)acetic acid]
IC50 [1]: < 3.98 µM

CCCCC[C@H](CN(O)C=O)C(=O)NCNC(=O)c1ccc(-c2cc(OC)ccc2OC)o1 [Example 53, (R)-5-(2,5-dimethoxyphenyl)-N-((2-((N-hydroxyformamido)methyl)heptanamido)methyl)furan-2-carboxamide]
IC50 [1]: < 3.98 µM

CCCCC[C@@H](C(=O)NCNC(=O)c1ccc(-c2ccc(C3(C(=O)O)CC3)cc2)o1)[C@@H](CC)N(O)C=O [Example 44, 1-(4-(5-((((R)-2-((R)-1-(N-hydroxyformamido)propyl)heptanamido)methyl)carbamoyl)furan-2-yl)phenyl)cyclopropane-carboxylic acid]
IC50 [1]: < 3.98 µM

CCCCC[C@H](CN(O)C=O)C(=O)NCNC(=O)c1ccc(-c2cc(OCC)cc(C(=O)OC)c2)o1 [Example 26]
IC50 [1]: < 3.98 µM

CCCCC[C@H](CN(O)C=O)C(=O)NCNC(=O)c1ccc(-c2cccc(OC(C)C)c2)o1 [Example 25, (R)-N-((2-((N-hydroxyformamido)methyl)heptanamido)methyl)-5-(3-isopropoxyphenyl)furan-2-carboxamide]
IC50 [1]: < 3.98 µM

CCCCC[C@H](CN(O)C=O)C(=O)NCNC(=O)c1ccc(-c2cccc(SC)c2)o1 [Example 104, (R)-N-((2-((N-hydroxyformamido)methyl)heptanamido)methyl)-5-(3-(methylthio)phenyl)furan-2-carboxamide]
IC50 [1]: < 3.98 µM

CCCCC[C@@H](C(=O)NCNC(=O)c1ccc(-c2ccc(C(=O)N[C@@H](CC(=O)O)C(=O)O)cc2)o1)[C@@H](CC)N(O)C=O [Example 119, (S)-2-(4-(5-((((R)-2-((R)-1-(N-hydroxyformamido)propyl)heptanamido)methyl)carbamoyl)furan-2-yl)benzamido) succinic acid]
IC50 [1]: < 3.98 µM

CCCCC[C@H](CN(O)C=O)C(=O)NCNC(=O)c1ccc(-c2ccc(F)c(C(=O)O)c2F)o1 [Example 78]
IC50 [1]: < 3.98 µM

CCCCC[C@@H](C(=O)NCNC(=O)c1ccc(-c2cc(OCC)cc(C(=O)N[C@H](CC(=O)O)C(=O)O)c2)o1)[C@@H](CC)N(O)C=O [Example 84, (R)-2-(3-ethoxy-5-(5-((((R)-2-((R)-1-(N-hydroxy-formamido)propyl)heptanamido)methyl)carbamoyl)furan-2-yl)benzamido) succinic acid]
IC50 [1]: < 3.98 µM

CCCCC[C@H](CN(O)C=O)C(=O)NCNC(=O)c1ccc(-c2cc(OC)ccn2)o1 [Example 18, (R)-N-((2-((N-hydroxyformamido)methyl)heptanamido)methyl)-5-(4-methoxypyridin-2-yl)furan-2-carboxamide]
IC50 [1]: < 3.98 µM

CCCCC[C@@H](C(=O)NCNC(=O)c1ccc(-c2ccc(C(=O)O)c(OCC)c2)o1)[C@@H](CC)N(O)C=O [Example 1, 2-ethoxy-4-(5-((((R)-2-((R)-1-(N-hydroxyformamido)propyl)heptanamido)methyl)carbamoyl)furan-2-yl)benzoic acid]
IC50 [1]: < 3.98 µM

CCCCC[C@@H](C(=O)NCNC(=O)c1ccc(-c2ccc(C(=O)N[C@H](CC(=O)O)C(=O)O)cc2)o1)[C@@H](CC)N(O)C=O [Example 133]
IC50 [1]: < 3.98 µM

CCCCC[C@@H](C(=O)NCNC(=O)C1CCC(c2cc(OCC)cc(P(=O)(O)O)c2)O1)[C@@H](CC)N(O)C=O (stereo partly drawn) [Example 97, (3-ethoxy-5-(5-((((R)-2-((R)-1-(N-hydroxyformamido)propyl)heptanamido)methyl)carbamoyl)tetrahydrofuran-2-yl)phenyl)phosphonic acid]
IC50 [1]: < 3.98 µM

CCCCC[C@@H](C(=O)NCNC(=O)c1ccc(-c2cc(O)cc(P(=O)(O)O)c2)o1)[C@@H](CC)N(O)C=O [Example 138, (3-hydroxy-5-(5-((((R)-2-((R)-1-(N-hydroxyformamido)propyl)heptanamido)methyl)carbamoyl)furan-2-yl)phenyl) phosphonic acid]
IC50 [1]: < 3.98 µM

CCCCC[C@H](CN(O)C=O)C(=O)NCNC(=O)c1ccc(-c2ccc(N)c(C(=O)O)c2)o1 [Example 64, (R)-2-amino-5-(5-(((2-((N-hydroxyformamido)methyl)heptanamido)methyl)carbamoyl)furan-2-yl)benzoic acid]
IC50 [1]: < 3.98 µM

CCCCC[C@H](CN(O)C=O)C(=O)NCNC(=O)c1ccc(-c2cccc(P(=O)(O)O)c2)o1 [Example 108, (R)-(3-(5-(((2-((N-hydroxyformamido)methyl)heptanamido)methyl)carbamoyl)furan-2-yl)phenyl)phosphonic acid]
IC50 [1]: < 3.98 µM
